The values below come from patent publication US20230373985A1 (Origenis Gmbh, priority 2020, published 2023).

Assay [1] has as its target T1, wt human TYK2, catalytic site (Homo sapiens, UniProt P29597).
T1 construct: wt human TYK2, catalytic site; purchased SignalChem
T1 sequence (P29597 897-1176 limits assumed): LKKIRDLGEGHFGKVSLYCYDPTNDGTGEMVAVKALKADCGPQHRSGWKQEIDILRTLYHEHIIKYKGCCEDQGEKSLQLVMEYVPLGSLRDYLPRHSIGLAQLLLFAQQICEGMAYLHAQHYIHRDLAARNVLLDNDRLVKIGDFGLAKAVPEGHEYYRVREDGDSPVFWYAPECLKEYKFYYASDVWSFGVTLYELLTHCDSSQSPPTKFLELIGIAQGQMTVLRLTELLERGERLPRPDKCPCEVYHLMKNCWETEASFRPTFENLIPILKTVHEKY
The experiment in a line: HTRF KinEASE assay, TYK2. The settings on record: 1 μM ATP; read-out: IC50, Activity Toward TYK2. In kind it is biochemical. Put shortly: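 Kinase reaction run at room temperature for at least 30 min: 2 nM TYK2 with 1 μM ATP, or 1 nM JAK2 with 100 μM ATP, each with 1 μM biotin-TK substrate. Phosphorylation detected by HTRF (60 min antibody/XL665) and evaluated from emission ratios.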

Assay [2] concerns the target T2, wt human JAK1, catalytic site (Homo sapiens, UniProt P23458).
T2 construct: wt human JAK1, catalytic site; purchased ThermoFisher
The assay is described as follows: HTRF KinEASE assay, JAK1. The settings on record: 2.5 μM ATP; read-out: IC50, Activity Toward JAK1. Type of assay: biochemical. Here is the method: Basic protocol for HTRF KinEASE assay (Cisbio/FRA) inhibitor studies involved two steps: • Enzymatic step: Addition of 4 μL of test compound in corresponding DMSO dilutions, 4 μL of kinase/substrate mixture, 2 μL of ATP into 384 well small volume plates. Incubation for at least 30 minutes at room temperature. • Detection step: Addition of 5 μL antibody and 5 μL streptavidin-XL665, read plate after 60 minutes. Data analysis of emission ratios according KinEASE assay protocol.
(§1) Kinase and assay components were adjusted to final concentrations according to kit protocol. For TYK2: 2 nM wt human TYK2, catalytic site (SignalChem/CAN), 1 μM HTRF KinEASE-TK Substrate-biotin, 1 μM ATP in 1× Kinase Buffer. […] For JAK2: 1 nM wt human JAK2, catalytic site (SignalChem/CAN), 1 μM HTRF KinEASE-TK Substrate-biotin, 100 μM ATP in 1× Kinase Buffer.
as §1

pIC50: −log10 of the molar value. Several values for one entry are separate records, joined by “and”; a condition that tells them apart may be missing. Identical values can stand only once. Bounds are passed on as bounds.

T2 sequence (P23458 875-1153 limits assumed): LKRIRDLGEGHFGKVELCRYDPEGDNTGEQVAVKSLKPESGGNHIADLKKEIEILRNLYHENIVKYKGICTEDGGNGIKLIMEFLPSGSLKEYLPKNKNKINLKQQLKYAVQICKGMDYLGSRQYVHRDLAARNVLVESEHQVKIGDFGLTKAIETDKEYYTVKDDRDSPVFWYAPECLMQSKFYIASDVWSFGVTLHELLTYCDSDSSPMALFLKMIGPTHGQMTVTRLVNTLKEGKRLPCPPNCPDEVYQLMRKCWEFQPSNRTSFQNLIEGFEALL

With `CN(C)[C@H]1CCN(C(=O)c2ccc(Nc3cn(-c4c(Cl)cccc4Cl)nc3C(N)=O)nc2)C1` [compound 366, (S)-1-(2,6-dichlorophenyl)-4-((5-(3-(dimethylamino)pyrrolidine-1-carbonyl)pyridin-2-yl)amino)-1H-pyrazole-3-carboxamide], the pIC50 in assay [1] is 7.00 to 8.00; in assay [2], 6.00 to 7.00.
For `CC(C)(C)OC(=O)N[C@@H]1CCN(C(=O)c2ccc(Nc3cn(-c4c(Cl)cccc4Cl)nc3C(N)=O)cc2)C1` [compound 324, (R)-tert-butyl_(1-(4-((3-carbamoyl-1-(2,6-dichlorophenyl)-1H-pyrazol-4-yl)amino)benzoyl)pyrrolidin-3-yl)carbamate], in that order: 6.00 to 7.00 and 6.00 to 7.00.
In the case of `N=S1(=O)CCN(C(=O)c2ccc(Nc3cn(-c4c(Cl)cccc4Cl)nc3C(N)=O)cc2)CC1` [compound 468, 1-(2,6-dichlorophenyl)-4-((4-(1-imino-1-oxidothiomorpholine-4-carbonyl)phenyl)amino)-1H-pyrazole-3-carboxamide], the negative logarithm of the IC50 (pIC50) in assay [1] and in assay [2] was more than 8.00 each time.
With `Cc1nnnn1-c1ccc(Nc2cn(-c3c(Cl)cccc3Cl)nc2C(N)=O)cc1` [compound 243, 1-(2,6-dichlorophenyl)-4-((4-(5-methyl-1H-tetrazol-1-yl)phenyl)amino)-1H-pyrazole-3-carboxamide], the results for the pIC50 in assay [1] and in assay [2] were more than 8.00 and 7.00 to 8.00, respectively.
`CCn1ncnc1-c1ccc(Nc2cn(-c3c(Cl)cccc3Cl)nc2C(N)=O)nc1` [compound 431, 1-(2,6-dichlorophenyl)-4-((5-(1-ethyl-1H-1,2,4-triazol-5-yl)pyridin-2-yl)amino)-1H-pyrazole-3-carboxamide]: the results for the pIC50 in assay [1] and in assay [2] were 6.00 to 7.00 and 7.00 to 8.00, respectively.
For `NC(=O)c1nn(-c2c(Cl)cccc2Cl)cc1Nc1ccc(-c2ccnnc2)nc1` [compound 352, 1-(2,6-dichlorophenyl)-4-((6-(pyridazin-4-yl)pyridin-3-yl)amino)-1H-pyrazole-3-carboxamide], in that order: 6.00 to 7.00 and 6.00 to 7.00.
For `CCc1ncnn1-c1ccc(Nc2cn(-c3c(Cl)cccc3Cl)nc2C(N)=O)cc1` [compound 291, 1-(2,6-dichlorophenyl)-4-((4-(5-ethyl-1H-1,2,4-triazol-1-yl)phenyl)amino)-1H-pyrazole-3-carboxamide], in that order: 7.00 to 8.00 and more than 8.00.
For `CN(C)C1CCN(C(=O)c2ccc(Nc3cn(-c4c(Cl)cccc4Cl)nc3C(N)=O)nc2)CC1` [compound 442, 1-(2,6-dichlorophenyl)-4-((5-(4-(dimethylamino)piperidine-1-carbonyl)pyridin-2-yl)amino)-1H-pyrazole-3-carboxamide], in that order: 6.00 to 7.00 and 6.00 to 7.00.
Consider `COCc1nc(C(F)(F)F)nn1-c1ccc(Nc2cn(-c3c(F)cccc3Cl)nc2C(N)=O)cc1` [compound 298, 1-(2-chloro-6-fluorophenyl)-4-((4-(5-(methoxymethyl)-3-(trifluoromethyl)-1H-1,2,4-triazol-1-yl)phenyl)amino)-1H-pyrazole-3-carboxamide], for which the pIC50 was 7.00 to 8.00 in assay [1] and 6.00 to 7.00 in assay [2].
The like results for `Cn1nnnc1-c1ccc(Nc2cn(-c3c(Cl)cccc3Cl)nc2C(N)=O)cn1` [compound 375, 1-(2,6-dichlorophenyl)-4-((6-(1-methyl-1H-tetrazol-5-yl)pyridin-3-yl)amino)-1H-pyrazole-3-carboxamide] were, in that order, 7.00 to 8.00 and 6.00 to 7.00.
The like results for `NC(=O)c1nn(-c2c(Cl)cccc2Cl)nc1Nc1ccc(-n2nncc2C(F)(F)F)cn1` [compound 157, 2-(2,6-dichlorophenyl)-5-((5-(5-(trifluoromethyl)-1H-1,2,3-triazol-1-yl)pyridin-2-yl)amino)-2H-1,2,3-triazole-4-carboxamide] were, in that order, 6.00 to 7.00 and 7.00 to 8.00.
For `CN1CCCN(C(=O)c2ccc(Nc3nn(-c4c(Cl)cccc4Cl)nc3C(N)=O)nc2)CC1` [compound 150, 2-(2,6-dichlorophenyl)-5-((5-(4-methyl-1,4-diazepane-1-carbonyl)pyridin-2-yl)amino)-2H-1,2,3-triazole-4-carboxamide], in that order: 7.00 to 8.00 and 7.00 to 8.00.
For `NC(=O)c1nn(-c2c(Cl)cccc2Cl)cc1Nc1ccc(CN2CCS(=O)(=O)CC2)nc1` [compound 455, 1-(2,6-dichlorophenyl)-4-((6-((1,1-dioxidothiomorpholino)methyl)pyridin-3-yl)amino)-1H-pyrazole-3-carboxamide], the pIC50 in assay [1] was 7.00 to 8.00; in assay [2], 6.00 to 7.00.
For `NC(=O)c1nn(-c2c(Cl)cccc2Cl)cc1Nc1ccc(C(=O)N2CC[C@@H](F)C2)cn1` [compound 443, (R)-1-(2,6-dichlorophenyl)-4-((5-(3-fluoropyrrolidine-1-carbonyl)pyridin-2-yl)amino)-1H-pyrazole-3-carboxamide], in that order: 7.00 to 8.00 and 7.00 to 8.00.
The like results for `Cc1cc(C)n(-c2ccc(Nc3cn(-c4c(Cl)cccc4Cl)nc3C(N)=O)cn2)n1` [compound 398, 1-(2,6-dichlorophenyl)-4-((6-(3,5-dimethyl-1H-pyrazol-1-yl)pyridin-3-yl)amino)-1H-pyrazole-3-carboxamide] were, in that order, 6.00 to 7.00 and 6.00 to 7.00.
For `CN1CCN(C(=O)c2ccc(Nc3cn(-c4c(Cl)cccc4Cl)nc3C(N)=O)cn2)CC1` [compound 363, 1-(2,6-dichlorophenyl)-4-((6-(4-methylpiperazine-1-carbonyl)pyridin-3-yl)amino)-1H-pyrazole-3-carboxamide], in that order: 7.00 to 8.00 and 6.00 to 7.00.
For the compound `NC(=O)c1nn(-c2c(Cl)cccc2Cl)cc1Nc1ccc(C(=O)N2CC(F)(F)C(F)(F)C2)nc1` [compound 362, 1-(2,6-dichlorophenyl)-4-((6-(3,3,4,4-tetrafluoropyrrolidine-1-carbonyl)pyridin-3-yl)amino)-1H-pyrazole-3-carboxamide], the pIC50 was 7.00 to 8.00 in assay [1] and 6.00 to 7.00 in assay [2].
The like results for `Cn1cc(C(F)(F)F)nc1-c1ccc(Nc2cn(-c3c(Cl)cccc3Cl)nc2C(N)=O)nc1` [compound 433, 1-(2,6-dichlorophenyl)-4-((5-(1-methyl-4-(trifluoromethyl)-1H-imidazol-2-yl)pyridin-2-yl)amino)-1H-pyrazole-3-carboxamide] were, in that order, 7.00 to 8.00 and 7.00 to 8.00.
The like results for `CC(C)(C)OC(=O)N[C@H]1CCN(C(=O)c2ccc(Nc3cn(-c4c(Cl)cccc4Cl)nc3C(N)=O)cc2)C1` [compound 325, (S)-tert-butyl_(1-(4-((3-carbamoyl-1-(2,6-dichlorophenyl)-1H-pyrazol-4-yl)amino)benzoyl)pyrrolidin-3-yl)carbamate] were, in that order, 7.00 to 8.00 and 6.00 to 7.00.
In the case of `NC(=O)c1nn(-c2c(Cl)cccc2Cl)nc1Nc1ccc(CC(=O)N2CCOCC2)nc1` [compound 151, 2-(2,6-dichlorophenyl)-5-((6-(2-morpholino-2-oxoethyl)pyridin-3-yl)amino)-2H-1,2,3-triazole-4-carboxamide], the pIC50 is 6.00 to 7.00 in assay [1] and 7.00 to 8.00 in assay [2].
For the compound `Cc1cnncc1-c1ccc(Nc2cn(-c3c(Cl)cccc3Cl)nc2C(N)=O)cn1` [compound 350, 1-(2,6-dichlorophenyl)-4-((6-(5-methylpyridazin-4-yl)pyridin-3-yl)amino)-1H-pyrazole-3-carboxamide], the negative-log IC50 (pIC50) in assay [1] and in assay [2] was 6.00 to 7.00 each time.
Consider `NC(=O)c1nn(-c2c(Cl)cccc2Cl)cc1Nc1ccc(C(=O)N2CCN(C3CC3)CC2)cn1` [compound 383, 4-((5-(4-cyclopropylpiperazine-1-carbonyl)pyridin-2-yl)amino)-1-(2,6-dichlorophenyl)-1H-pyrazole-3-carboxamide], for which the pIC50 in assay [1] was 7.00 to 8.00 and 6.00 to 7.00; in assay [2] it was 6.00 to 7.00.
Regarding `Cc1cccc2nnc(-c3ccc(Nc4nn(-c5c(Cl)cccc5Cl)nc4C(N)=O)cn3)n12` [compound 139, 2-(2,6-dichlorophenyl)-5-((6-(5-methyl-[1,2,4]triazolo[4,3-a]pyridin-3-yl)pyridin-3-yl)amino)-2H-1,2,3-triazole-4-carboxamide], the pIC50 in assay [1] is 6.00 to 7.00; in assay [2], 7.00 to 8.00.
For `NC(=O)c1nn(-c2c(Cl)cc(F)cc2Cl)nc1Nc1ccc(C(=O)N2CC[C@@H](F)C2)cc1` [compound 146, (R)-2-(2,6-dichloro-4-fluorophenyl)-5-((4-(3-fluoropyrrolidine-1-carbonyl)phenyl)amino)-2H-1,2,3-triazole-4-carboxamide], in that order: 7.00 to 8.00 and more than 8.00.
